From ChEMBL document CHEMBL3525916, “Investigation of figopitant and its metabolites in rat tissue by combining whole-body autoradiography with liquid extraction surface analysis mass spectrometry” (Drug Metab Dispos, 2012)

Legend:
Conditions in all cases: in vivo
Rattus norvegicus [1] = assay: Biodistribution in albino Wistar Hannover rat tongue at 5 mg/kg, iv after 24 hrs by autoradiography analysis; format: ADME, organism-based; set-up: dose 5 mg/kg, route intravenous
Liver [2] = assay: Drug uptake in albino Wistar Hannover rat liver at 5 mg/kg, iv
Brain [3] = assay: Half life in albino Wistar Hannover rat brain at 5 mg/kg, iv by autoradiography analysis; format: ADME, organism-based; set-up: dose 5 mg/kg, route intravenous
[4] = Drug uptake in albino Wistar Hannover rat harder's gland at 5 mg/kg, iv by LESA-MS analysis; format: ADME, organism-based, Harderian gland; set-up: dose 5 mg/kg, route intravenous
Liver [5] = assay: Biodistribution in albino Wistar Hannover rat liver at 5 mg/kg, iv after 5 mins by autoradiography analysis; format: ADME, organism-based; set-up: dose 5 mg/kg, route intravenous
Spleen = assay: Biodistribution in albino Wistar Hannover rat spleen at 5 mg/kg, iv after 24 hrs by autoradiography analysis; format: ADME, organism-based; set-up: dose 5 mg/kg, route intravenous
Rattus norvegicus [6] = assay: Biodistribution in albino Wistar Hannover rat adipose tissue at 5 mg/kg, iv after 24 hrs by autoradiography analysis; format: ADME, organism-based; set-up: dose 5 mg/kg, route intravenous
Pituitary gland [7] = assay: Biodistribution in albino Wistar Hannover rat pituitary at 5 mg/kg, iv after 4 hrs by autoradiography analysis; format: ADME, organism-based; set-up: dose 5 mg/kg, route intravenous
Thymus [8] = assay: Drug uptake in albino Wistar Hannover rat thymus at 5 mg/kg, iv by LESA-MS analysis; format: ADME, organism-based; set-up: dose 5 mg/kg, route intravenous
Blood [9] = assay: Biodistribution in albino Wistar Hannover rat whole blood at 5 mg/kg, iv after 4 hrs by liquid scintillation counting; format: ADME, organism-based; set-up: dose 5 mg/kg, route intravenous
Zone of skin [10] = assay: Biodistribution in albino Wistar Hannover rat skin at 5 mg/kg, iv after 5 mins by autoradiography analysis; format: ADME, organism-based; set-up: dose 5 mg/kg, route intravenous
Rattus norvegicus [11] = assay: Biodistribution in albino Wistar Hannover rat muscle cranial at 5 mg/kg, iv after 5 mins by autoradiography analysis; format: ADME, organism-based, Muscle tissue; set-up: dose 5 mg/kg, route intravenous
Rattus norvegicus [12] = assay: Biodistribution in albino Wistar Hannover rat bone marrow at 5 mg/kg, iv after 5 mins by autoradiography analysis; format: ADME, organism-based; set-up: dose 5 mg/kg, route intravenous
Pituitary gland [13] = assay: Biodistribution in albino Wistar Hannover rat pituitary at 5 mg/kg, iv after 24 hrs by autoradiography analysis; format: ADME, organism-based; set-up: dose 5 mg/kg, route intravenous
[14] = Drug uptake in albino Wistar Hannover rat white fat at 5 mg/kg, iv by LESA-MS analysis; format: ADME, organism-based, White adipose tissue; set-up: dose 5 mg/kg, route intravenous
Brain [15] = assay: Biodistribution in albino Wistar Hannover rat brain at 5 mg/kg, iv after 5 mins by autoradiography analysis; format: ADME, organism-based; set-up: dose 5 mg/kg, route intravenous
Lung [16] = assay: Biodistribution in albino Wistar Hannover rat lung at 5 mg/kg, iv after 24 hrs by autoradiography analysis; format: ADME, organism-based; set-up: dose 5 mg/kg, route intravenous
Lung [17] = assay: Half life in albino Wistar Hannover rat lung at 5 mg/kg, iv by autoradiography analysis; format: ADME, organism-based; set-up: dose 5 mg/kg, route intravenous
Pituitary gland [18] = assay: Drug uptake in albino Wistar Hannover rat pituitary at 5 mg/kg, iv by LESA-MS analysis; format: ADME, organism-based; set-up: dose 5 mg/kg, route intravenous
Rattus norvegicus [19] = assay: Biodistribution in albino Wistar Hannover rat adipose tissue at 5 mg/kg, iv after 4 hrs by autoradiography analysis; format: ADME, organism-based; set-up: dose 5 mg/kg, route intravenous
Harderian gland = assay: Biodistribution in albino Wistar Hannover rat harderian gland at 5 mg/kg, iv after 24 hrs by autoradiography analysis; format: ADME, organism-based; set-up: dose 5 mg/kg, route intravenous
Rattus norvegicus [20] = assay: Biodistribution in albino Wistar Hannover rat epididymis at 5 mg/kg, iv after 5 mins by autoradiography analysis; format: ADME, organism-based; set-up: dose 5 mg/kg, route intravenous
[21] = Drug uptake in albino Wistar Hannover rat testis at 5 mg/kg, iv by LESA-MS analysis; format: ADME, organism-based; set-up: dose 5 mg/kg, route intravenous
Blood [22] = assay: Half life in albino Wistar Hannover rat whole blood at 5 mg/kg, iv by liquid scintillation counting; format: ADME, organism-based; set-up: dose 5 mg/kg, route intravenous
Rattus norvegicus [23] = assay: Biodistribution in albino Wistar Hannover rat bone marrow at 5 mg/kg, iv after 24 hrs by autoradiography analysis; format: ADME, organism-based; set-up: dose 5 mg/kg, route intravenous
Zone of skin [24] = assay: Biodistribution in albino Wistar Hannover rat skin at 5 mg/kg, iv after 4 hrs by autoradiography analysis; format: ADME, organism-based; set-up: dose 5 mg/kg, route intravenous
Kidney = assay: Drug uptake in albino Wistar Hannover rat outer medulla of kidney at 5 mg/kg, iv by LESA-MS analysis; format: ADME, organism-based; set-up: dose 5 mg/kg, route intravenous
Thymus [25] = assay: Biodistribution in albino Wistar Hannover rat thymus at 5 mg/kg, iv after 5 mins by autoradiography analysis; format: ADME, organism-based; set-up: dose 5 mg/kg, route intravenous
Lung [26] = assay: Biodistribution in albino Wistar Hannover rat lung at 5 mg/kg, iv after 4 hrs by autoradiography analysis; format: ADME, organism-based; set-up: dose 5 mg/kg, route intravenous
Rattus norvegicus [27] = assay: Biodistribution in albino Wistar Hannover rat myocardium at 5 mg/kg, iv after 4 hrs by autoradiography analysis; format: ADME, organism-based; set-up: dose 5 mg/kg, route intravenous
Thymus [28] = assay: Biodistribution in albino Wistar Hannover rat thymus at 5 mg/kg, iv after 4 hrs by autoradiography analysis; format: ADME, organism-based; set-up: dose 5 mg/kg, route intravenous
Rattus norvegicus [29] = assay: Biodistribution in albino Wistar Hannover rat renal cortex at 5 mg/kg, iv after 24 hrs by autoradiography analysis; format: ADME, organism-based; set-up: dose 5 mg/kg, route intravenous
[30] = Drug uptake in albino Wistar Hannover rat salivary gland at 5 mg/kg, iv by LESA-MS analysis; format: ADME, organism-based; set-up: dose 5 mg/kg, route intravenous
Thymus [31] = assay: Biodistribution in albino Wistar Hannover rat thymus at 5 mg/kg, iv after 24 hrs by autoradiography analysis; format: ADME, organism-based; set-up: dose 5 mg/kg, route intravenous
Plasma = assay: Biodistribution in albino Wistar Hannover rat plasma at 5 mg/kg, iv after 4 hrs by liquid scintillation counting; format: ADME, organism-based; set-up: dose 5 mg/kg, route intravenous
Liver [32] = assay: Biodistribution in albino Wistar Hannover rat liver at 5 mg/kg, iv after 4 hrs by autoradiography analysis; format: ADME, organism-based; set-up: dose 5 mg/kg, route intravenous
[33] = Drug uptake in albino Wistar Hannover rat epididymis at 5 mg/kg, iv by LESA-MS analysis; format: ADME, organism-based; set-up: dose 5 mg/kg, route intravenous
Brain [34] = assay: Biodistribution in albino Wistar Hannover rat brain at 5 mg/kg, iv after 24 hrs by autoradiography analysis; format: ADME, organism-based; set-up: dose 5 mg/kg, route intravenous
Blood [35] = assay: Biodistribution in albino Wistar Hannover rat whole blood at 5 mg/kg, iv after 5 mins by liquid scintillation counting; format: ADME, organism-based; set-up: dose 5 mg/kg, route intravenous
Brain [36] = assay: Drug uptake in albino Wistar Hannover rat brain at 5 mg/kg, iv by LESA-MS analysis; format: ADME, organism-based; set-up: dose 5 mg/kg, route intravenous
Pancreas = assay: Biodistribution in albino Wistar Hannover rat pancreas at 5 mg/kg, iv after 5 mins by autoradiography analysis; format: ADME, organism-based; set-up: dose 5 mg/kg, route intravenous
Rattus norvegicus [37] = assay: Biodistribution in albino Wistar Hannover rat myocardium at 5 mg/kg, iv after 5 mins by autoradiography analysis; format: ADME, organism-based; set-up: dose 5 mg/kg, route intravenous

## CN(CCc1cc(C(F)(F)F)cc(C(F)(F)F)c1)C(=O)[C@H](c1ccccc1)N1CCN(CC2CC2)CC1.Cl.O
Rattus norvegicus [1]
  Drug uptake: 891 ngequiv/g
Liver [2]
  Drug uptake: 12.9%
Brain [3]
  t1/2: 32.7 h
[4]
  Drug uptake: 79.9%
Liver [5]
  Drug uptake: 5984 ngequiv/g
Spleen
  Drug uptake: 3306 ngequiv/g
Rattus norvegicus [6]
  Drug uptake: 113 ngequiv/g
Pituitary gland [7]
  Drug uptake: 7747 ngequiv/g
Thymus [8]
  Drug uptake: 67.2%
Blood [9]
  Drug uptake: 361 ngequiv/g
Zone of skin [10]
  Drug uptake: 1743 ngequiv/g
Rattus norvegicus [11]
  Drug uptake: 8437 ngequiv/g
Rattus norvegicus [12]
  Drug uptake: 4445 ngequiv/g
Pituitary gland [13]
  Drug uptake: 2350 ngequiv/g
[14]
  Drug uptake: 100%
Brain [15]
  Drug uptake: 1912 ngequiv/g
Lung [16]
  Drug uptake: 1708 ngequiv/g
Lung [17]
  t1/2: 20.5 h
Pituitary gland [18]
  Drug uptake: 47.8%
Rattus norvegicus [19]
  Drug uptake: 537 ngequiv/g
Harderian gland
  Drug uptake: 6246 ngequiv/g
Rattus norvegicus [20]
  Drug uptake: 1728 ngequiv/g
[21]
  Drug uptake: 79.5%
Blood [22]
  t1/2: 38.6 h
Rattus norvegicus [23]
  Drug uptake: 1156 ngequiv/g
Zone of skin [24]
  Drug uptake: 1997 ngequiv/g
Kidney
  Drug uptake: 20.8%
Thymus [25]
  Drug uptake: 3243 ngequiv/g
Lung [26]
  Drug uptake: 10036 ngequiv/g
Rattus norvegicus [27]
  Drug uptake: 4240 ngequiv/g
Thymus [28]
  Drug uptake: 3372 ngequiv/g
Rattus norvegicus [29]
  Drug uptake: 2627 ngequiv/g
[30]
  Drug uptake: 42.5%
Thymus [31]
  Drug uptake: 1746 ngequiv/g
Plasma
  Drug uptake: 192 ngequiv/g
Liver [32]
  Drug uptake: 13851 ngequiv/g
[33]
  Drug uptake: 62.1%
Brain [34]
  Drug uptake: 50 ngequiv/g
Blood [35]
  Drug uptake: 830 ngequiv/g
Brain [36]
  Drug uptake: 75.6%
Pancreas
  Drug uptake: 17869 ngequiv/g
Rattus norvegicus [37]
  Drug uptake: 13504 ngequiv/g
